Laboratory results as given in US5034548A, “Steroid derivatives useful as hypocholesterolemics” (E. I. Du Pont de Nemours and Company, priority 1990, dated 1991).

Columns and labels:
[1] = system: 3-Hydroxy-3-Methylglutaryl Coenzyme A Reductase (HMGR); assay: HMGR Suppression Assay in digitonin-permeabilized CHO cells; type: cell-based, Chinese Hamster; settings: for IC50: 6 hr incubation at 37°, amount to suppress HMGR activity by 50% relative to controls; for effect on measured HMGR activity: tested under these same conditions
Procedure: The ability of the compounds of Formula I to suppress the activity of HMGR, the rate limiting enzyme of cholesterol biosynthesis, was tested as follows. Chinese Hamster Ovary (CHO) cells were divided twice weekly and were maintained in McCoy's 5A medium supplemented with 1% Cab-O-Sil delipidated Fetal Bovine Serum (FBS) (obtained from Gibco Laboratories, Chagrin Falls, Ohio). Cells were harvested during the logarithmic phase of growth and cell cultures were prepared by adding 0.5×10^6 cells to wash well in a 24 well cluster dish (obtained from Costar, Data Packaging Corp., Cambridge, Mass.) employing 1 mL of the above medium per each well. […] Control cells were treated in an identical fashion to those which received test compound, except they were incubated with the BSA and ethanol suspension only.
Specifically, the medium in each well was aspirated and the cells rinsed with a 50 mM solution of phosphate buffered saline (PBS). One mL of 30 μg/mL of digitonin in CSK buffer (prepared using 10 mM Pipes [piperazine-N,N'-bis(2-ethansulfonic)acid'], 100 mM KCl, 2.5 mM MgCl2, 300 mM sucrose, 1 mM EGTA, pH 6.8) was added to each well and incubated for 10 min at 22° to permeabilize the cells. The buffer was carefully aspirated and the wells were rinsed twice each time with 1 mL of PBS. HMGR activity was measured directly by adding 75 μL of PIB buffer (50 mM potassium phosphate, 1 mM Na2 EDTA, 10 mM dithiothreitol, pH 7.4) to each well and incubating the cells for 30 minutes at 37° as described above. […] HMG-Coenzyme A (15 DPM/pmol), pH 7.4. The assay mixture was incubated for 30 min at 37° and terminated by the addition of 70 μL of [^3 H]-mevalonic acid (35,000 DPM/assay), 0.15 mg/mL in 3 N HCl. The reaction was left to lactonize for an additional 30 min at 37° or overnight at room temperature.
Reaction products were separated by thin layer chromatography on silica gel G (obtained from Analtech, Newark, Del.) developed in an unsaturated environment with acetone:benzene (3:2, v:v). The band corresponding to mevalonolactone was identified by exposure to iodine vapor and was scraped into counting vials. The extent of conversion of starting substrate, HMG-CoA, to mevalonic acid was determined by liquid scintillation counting in Biofluor (obtained from New England Nuclear, Boston, Mass). Corrections for recovery and blank values were made for each sample. Protein determinations were made by the Bio-rad (Bio-Rad, Richmond, Cal.) dye binding assay according to the manufacturer's instruction using bovine serum albumin as standard. Cellular protein was solubilized from culture dishes by the addition of 20 μL of 16 N KOH and assayed directly for protein amount. Suppression values are expressed as the amount of compound required to suppress HMGR activity by 50% relative to that of the controls.

[2] = system: cholesterol synthesis in CHO cells; assay: De novo cholesterol synthesis: incorporation of radiolabeled acetate into cholesterol in CHO cells; type: cell-based, Chinese Hamster; settings: for Cholesterol Synthesis (DPMs): 17 hr + 2 hr with [14C]-acetic acid, Control 38855
Procedure: The ability of the compounds of Formula I to decrease de novo cholesterol synthesis was tested by measuring the incorporation of radiolabeled acetate into cholesterol synthesized in CHO cells. To conduct this experiment, CHO cells were plated at 0.3×10^6 cells per 15×60 mm tissue culture dish in 5 mL of McCoy's modified medium (Gibco Laboratories) containing 1% Cab-O-Sil delipidated FBS and incubated for 48 hours at 37° in a 5% CO2, 95% air environment. Test compounds in a 2.5% suspension of BSA (fatty acid free) in ethanol were then added to the cultures such that the final ethanol and BSA concentrations were 0.5% and […], respectively. Control cultures received ethanol and BSA alone. The cultures containing test compounds were then incubated at 37° in a 5% Co, 95% air environment for 17 hr before the addition of [1,2-^14 C]-acetic acid (57 μCi/mmol); obtained from New England Nuclear, Boston, Mass.) at a concentration of 10 μCi/mL for 2 additional hr.
The cells were harvested by washing the cells twice with 5 mL of cold PBS and scraping the cells into 1 mL PBS. The cell-containing solution was then transferred to 15 mL extraction tubes and treated with 1 mL of 90% methanol (containing 15% KOH, 100 μg/mL butylated hydroxytoluene). All samples were saponified for 1 hr at 80° and the non-saponifiable lipids then extracted with petroleum ether. The petroleum ether fractions were dried under nitrogen, resuspended in ethanol, counted and analyzed by reverse phase HPLC at 45° using an Ultrashpere Octyl column (from Altex Scientific Inc., Berkeley, Calif.) with a mobile phase of acetonitrile:methanol:water (44:44:12). The amount of cholesterol synthesis is measured by the amount of radiolabeled acetate incorporated into the cholesterol peak. The percent of cholesterol synthesis in the treated culture is calculated based upon the control culture.

[3] = biological target: T1, Lanosta-8,24-dien-3β-ol 14α-methyl demethylase (Rattus norvegicus, UniProt Q64654); assay: Lanosta-8,24-dien-3β-ol 14α-Methyl Demethylase Inhibition Assay; type: biochemical; settings: for IC50: rat hepatic microsomal preparations, 100 μM lanost-8-en-3β-ol substrate, pH not given, test compounds 0 to 100 μM; for effect on lanosta-8,24-dien-3β-ol 14α-methyl demethylase activity: rat microsomal preparations
T1 construct: determined in rat depatic microsomal preparations; from tissue; host or cells: rat hepatic microsomes
T1 sequence (Q64654 1-503): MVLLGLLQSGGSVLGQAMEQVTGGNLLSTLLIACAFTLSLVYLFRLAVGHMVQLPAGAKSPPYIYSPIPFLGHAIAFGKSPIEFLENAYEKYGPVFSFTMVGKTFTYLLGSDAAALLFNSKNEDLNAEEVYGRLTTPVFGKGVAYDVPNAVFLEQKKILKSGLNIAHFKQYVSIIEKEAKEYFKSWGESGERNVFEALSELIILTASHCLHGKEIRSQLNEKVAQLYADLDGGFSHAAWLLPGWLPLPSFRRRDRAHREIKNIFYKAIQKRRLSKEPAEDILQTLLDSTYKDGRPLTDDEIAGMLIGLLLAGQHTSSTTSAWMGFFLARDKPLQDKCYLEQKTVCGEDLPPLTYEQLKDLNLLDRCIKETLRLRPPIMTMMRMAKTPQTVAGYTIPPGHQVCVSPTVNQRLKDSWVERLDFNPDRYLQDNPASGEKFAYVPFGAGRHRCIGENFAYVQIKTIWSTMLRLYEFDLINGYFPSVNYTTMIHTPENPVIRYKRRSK
Procedure: Lanosta-8,24-dien-3β-ol 14α-methyl demethylase activity was determined in rat depatic microsomal preparations as described in Trzaskos et al., J. Biol. Chem., 261, 16937-16942 (1986). Specifically, test compounds were added to assay mixtures as detergent suspensions with substrate employing 5 mg Triton WR-1339, 100 μM lanost-8-en-3β-ol substrate, and test compounds ranging from 0 to 100 μM. The inhibitor/substrate/detergent suspension was incubated with 2 mg microsomal protein for 5 min at 37° followed by a 10 min incubation initiated by the addition of cofactors required for the reaction. […] Inhibition values are expressed as the amount of compound required to inhibit lanosta-8,24-dien-3β-ol 14α-methyldemethylase activity by 50% relative to that of the controls.

[4] = Cricetulus griseus, 19 h, 10 μM, percent of control culture (100)

| SMILES | IC50 [1] | IC50 [3] | further results |
| --- | --- | --- | --- |
| C=CC(O)[C@@]12CC[C@H]([C@H](C)CCCC(C)C)[C@@]1(C)CCC1=C2CC[C@H]2C(C)(C)[C@@H](O)CC[C@]12C (single isomer, unassigned) [Compound 11a, 4,4-dimethyl-14α-(1'-hydroxy-2'-propenyl)-5α-cholest-8-en-3β-ol] | 60 nM |  | Cholesterol Synthesis (DPMs) ([2]; 1 μM): 360 DPMs |
| C=CC(O)[C@@]12CC[C@H]([C@H](C)CCCC(C)C)[C@@]1(C)CCC1=C2CC[C@H]2C(C)(C)[C@@H](O)CC[C@]12C (single isomer, unassigned) [Compound 12a, 4,4-dimethyl-14α-(1'-hydroxy-2'-propenyl)-5α-cholest-8-en-3β-ol] | 130 nM | 3200 nM | Cholesterol Synthesis (DPMs) ([2]; 1 μM): 636 DPMs; activity at 1 µM ([2]; Cricetulus griseus, 19 h, 1 μM, percent of control culture (100)): 2% |
| CC(C)=CCC[C@@H](C)[C@H]1CC[C@@]2(C)C3=C(CC[C@]12C)[C@@]1(C)CC[C@H](O)C(C)(C)[C@@H]1CC3 [Compound 1, lanosta-8,24-dien-3β-ol, reference compound] |  |  | effect on measured HMGR activity [1]: without effect; effect on lanosta-8,24-dien-3β-ol 14α-methyl demethylase activity [3]: clearly served as substrates |
| CC(C)CCC[C@@H](C)[C@H]1CC[C@@]2(C(F)F)C3=C(CC[C@]12C)[C@@]1(C)CC[C@H](O)C(C)(C)[C@@H]1CC3 [Compound 9a, 32,32-difluoro-lanost-8-en-3β-ol] | 1300 nM | 16000 nM | Cholesterol Synthesis (DPMs) ([2]; 10 μM): 3615 DPMs; activity at 10 µM [2, 4]: 9% |
| CC(C)CCC[C@@H](C)[C@H]1CC[C@@]2(C(F)F)C3=CC[C@H]4C(C)(C)[C@@H](O)CC[C@]4(C)[C@H]3CC[C@]12C [Compound 9b, 32,32-difluoro-lanost-7-en-3β-ol] | 1400 nM | 37000 nM | Cholesterol Synthesis (DPMs) ([2]; 10 μM): 10125 DPMs; activity at 10 µM [2, 4]: 26% |
| CC(C)CCC[C@@H](C)[C@H]1CC[C@@]2(C=NO)C3=C(CC[C@]12C)[C@@]1(C)CC[C@H](O)C(C)(C)[C@@H]1CC3 [Compound 15a, lanost-8-en-32-aldoxime-3β-ol] | 40 nM | 1100 nM |  |
| CC(C)CCC[C@@H](C)[C@H]1CC[C@@]2(C=NO)C3=CC[C@H]4C(C)(C)[C@@H](O)CC[C@]4(C)[C@H]3CC[C@]12C [Compound 15b, lanost-7-en-32-aldoxime-3β-ol] | 1400 nM | 3000 nM | Cholesterol Synthesis (DPMs) ([2]; 0.5 μM): 1534 DPMs; activity at 0.5 µM ([2]; Cricetulus griseus, 19 h, 0.5 μM, percent of control culture (100)): 4% |
| CC(C)CCC[C@@H](C)[C@H]1CC[C@@]2(C#N)C3=C(CC[C@]12C)[C@@]1(C)CC[C@H](O)C(C)(C)[C@@H]1CC3 [Compound 17a, 14α-cyano-4,4-dimethyl-5α-cholest-8-en-3β-ol] | 1400 nM | 11000 nM |  |
| CC(C)CCC[C@@H](C)[C@H]1C[C@H](F)[C@@]2(C)C3=CC[C@H]4C(C)(C)[C@@H](O)CC[C@]4(C)[C@H]3CC[C@]12C [Compound 26b, 15α-fluoro-lanost-7-en-3β-ol] | 1000 nM | > 100000 nM | Cholesterol Synthesis (DPMs) ([2]; 10 μM): 12279 DPMs; activity at 10 µM [2, 4]: 32% |
| CC(C)CCC[C@@H](C)[C@H]1C[C@H](F)[C@@]2(C)C3=CC[C@H]4C[C@@H](O)CC[C@]4(C)[C@H]3CC[C@]12C [Compound 27b, 15α-fluoro-14α-methyl-5α-cholest-7-en-3β-ol] | 500 nM | > 100000 nM |  |
| CC(C)CCC[C@@H](C)[C@H]1C[C@H](O)[C@@]2(O)C3=C(CC[C@]12C)[C@@]1(C)CC[C@H](O)C[C@@H]1CC3 [Compound 35a, 5α-cholest-8-en-3β,14α,15α-triol] | 400 nM | > 100000 nM |  |
| CC(C)CCC[C@@H](C)[C@H]1CC[C@H]2[C@@H]3CC=C4C[C@@H](O)CC[C@]4(C)[C@H]3CC[C@]12C [cholesterol] |  |  | effect on measured HMGR activity [1]: without effect; effect on lanosta-8,24-dien-3β-ol 14α-methyl demethylase activity [3]: without effect |
| CC(C)CCC[C@@H](C)[C@H]1CC[C@@]2(C)C3=C(CC[C@]12C)[C@@]1(C)CC[C@H](O)C(C)(C)[C@@H]1CC3 [lanost-8-en-3β-ol, reference compound] |  |  | effect on measured HMGR activity [1]: without effect; effect on lanosta-8,24-dien-3β-ol 14α-methyl demethylase activity [3]: clearly served as substrates |
